# Data taken from US10975068B2, “6-aminopyridin-3-yl thiazoles as modulators of RORγT” (Janssen Pharmaceutica NV, priority 2016, dated 2021).
# Where two headings read alike, the source gives them in different places.
# Key:
# [1] = target: human RORγt ligand binding domain (RORγt LBD) (Homo sapiens (Human), UniProt P51449); assay: RORγt ThermoFluor® assay (thermal shift binding); details: read-out: ThermoFluor® Assay, Kd
# Outline: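 Binding was inferred from thermal stabilisation (ΔTm) of the E. coli-expressed RORγt LBD (0.065 mg/mL), monitored by 1,8-ANS (60 μM) emission at 500 nm during a 1 °C/min ramp. Buffer was Hepes 100 mM pH 7.0 with NaCl, GSH and Tween-20.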
# full-length human RORγt = full-length human RORγt (Homo sapiens (Human), UniProt P51449); assay: RORγt (full-length human) reporter assay, Conditions B or C; format: cell-based; details: for inhibition at 3 µM: at 3 μM compound concentration, read-out: RORγt (FL) Reporter Assay B or C, % inhibition; for IC50: read-out: RORγt (FL) Reporter Assay B or C, IC50; for RORγt (FL) Reporter Assay B or C, % inhibition (value marked *): marked *: footnote not given
# full-length human RORγt, sequence (P51449 other isoform, or with tags, fused parts or gaps): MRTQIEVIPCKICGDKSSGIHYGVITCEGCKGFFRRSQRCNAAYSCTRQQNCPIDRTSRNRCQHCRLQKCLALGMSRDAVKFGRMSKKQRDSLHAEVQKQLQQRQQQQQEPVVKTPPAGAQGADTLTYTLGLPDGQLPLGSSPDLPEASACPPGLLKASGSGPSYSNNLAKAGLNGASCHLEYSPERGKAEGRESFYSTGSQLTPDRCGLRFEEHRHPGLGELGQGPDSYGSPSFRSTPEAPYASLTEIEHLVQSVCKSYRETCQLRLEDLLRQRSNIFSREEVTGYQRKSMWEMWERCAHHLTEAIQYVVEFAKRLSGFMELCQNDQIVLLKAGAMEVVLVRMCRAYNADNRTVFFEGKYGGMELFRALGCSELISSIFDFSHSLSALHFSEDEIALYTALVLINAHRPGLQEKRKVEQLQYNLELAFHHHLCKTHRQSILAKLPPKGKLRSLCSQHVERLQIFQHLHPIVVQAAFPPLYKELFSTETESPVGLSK
# Outline: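 Readout is dual luciferase: firefly (GAL4-driven) normalized to DMSO-only and saturating-reference controls, then to CMV-Renilla. Full-length human RORγt fused to GAL4-DBD was transiently expressed in HEK293T; compound exposure ran overnight (16-20 h) starting 4-6 h after transfection, final FBS 1.3%, DMSO 0.1%.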
# human RORγt ligand binding domain (RORγt LBD), sequence (P51449 other isoform, or with tags, fused parts or gaps): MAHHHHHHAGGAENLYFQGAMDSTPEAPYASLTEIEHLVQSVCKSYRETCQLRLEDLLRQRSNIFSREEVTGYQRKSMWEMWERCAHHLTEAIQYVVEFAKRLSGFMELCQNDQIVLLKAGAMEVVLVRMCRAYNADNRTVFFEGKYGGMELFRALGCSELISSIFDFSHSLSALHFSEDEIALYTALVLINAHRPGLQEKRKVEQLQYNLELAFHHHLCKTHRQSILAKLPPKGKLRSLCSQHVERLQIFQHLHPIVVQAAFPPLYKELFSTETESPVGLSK
SMILES,Kd [1],inhibition at 3 µM (full-length human RORγt),IC50 (full-length human RORγt),"RORγt (FL) Reporter Assay B or C, % inhibition (value marked *) (full-length human RORγt; Conditions B or C)",IC50 (full-length human RORγt; Conditions B or C)
"CC[C@H](Nc1cc(C(F)F)c(-c2sc(C(=O)NC3CCS(=O)(=O)CC3)nc2C(=O)N2CCC[C@@H]2C)cn1)C(F)(F)F [Example 232, 5-(4-(Difluoromethyl)-6-(((S)-1,1,1-trifluorobutan-2-yl)amino)pyridin-3-yl)-N-(1,1-dioxidotetrahydro-2H-thiopyran-4-yl)-4-((S)-2-methylpyrrolidine-1-carbonyl)thiazole-2-carboxamide]",3.4 nM,–,–,122* %,69 nM
"C[C@H](Nc1cc(C(F)F)c(-c2sc(C(=O)N[C@H]3CC[C@H](O)C3)nc2C(=O)N2CC(F)(F)C[C@@H]2C)cn1)C(F)(F)F [Example 415, 4-[(2S)-4,4-Difluoro-2-methyl-pyrrolidine-1-carbonyl]-5-[4-(difluoromethyl)-6-[[(1S)-2,2,2-trifluoro-1-methyl-ethyl]amino]-3-pyridyl]-N-[(1S,3S)-3-hydroxycyclopentyl]thiazole-2-carboxamide]",1.1 nM,97%,64 nM,–,–
"CC[C@H](Nc1cc(C(F)F)c(-c2sc(C(=O)N[C@H](C)C(C)(C)O)nc2C(=O)N2CCCC[C@@H]2C)cn1)C(F)(F)F [Example 241, 5-[4-(Difluoromethyl)-6-[[(1S)-1-(trifluoromethyl)propyl]amino]-3-pyridyl]-N-[(1R)-2-hydroxy-1,2-dimethyl-propyl]-4-[(2S)-2-methylpiperidine-1-carbonyl]thiazole-2-carboxamide]",0.59 nM,–,–,103* %,24 nM
"C[C@H](Nc1cc(C(F)F)c(-c2sc(C(=O)N[C@@H]3CC[C@@H]3O)nc2C(=O)N2CCC[C@@H]2C)cn1)C(F)(F)F (relative stereo) [Example 391, 5-(4-(Difluoromethyl)-6-(((S)-1,1,1-trifluoropropan-2-yl)amino)pyridin-3-yl)-N-((1R*,2S*)-2-hydroxycyclobutyl)-4-((S)-2-methylpyrrolidine-1-carbonyl)thiazole-2-carboxamide]",4.2 nM,106%,35 nM,–,–

# The remaining lines, values ahead:
Kd [1],inhibition at 3 µM (full-length human RORγt),IC50 (full-length human RORγt),"RORγt (FL) Reporter Assay B or C, % inhibition (value marked *) (full-length human RORγt; Conditions B or C)",IC50 (full-length human RORγt; Conditions B or C),SMILES
2.1 nM,108%,21 nM,–,–,"CC[C@H](Nc1cc(C(F)F)c(-c2sc(C(=O)N[C@H]3C[C@H](O)C3)nc2C(=O)N2CC(F)(F)C[C@@H]2C)cn1)C(F)(F)F [Example 449, 4-((S)-4,4-Difluoro-2-methylpyrrolidine-1-carbonyl)-5-(4-(difluoromethyl)-6-(((S)-1,1,1-trifluorobutan-2-yl)amino)pyridin-3-yl)-N-((1R,3S)-3-hydroxycyclobutyl)thiazole-2-carboxamide]"
0.26 nM,–,–,110* %,3.9 nM,"CCC(C)(C)Nc1cc(C(F)(F)F)c(-c2sc(C(=O)NCC(C)(C)O)nc2C(=O)N2CC(F)(F)C[C@@H]2C)cn1 [Example 103, (S)-4-(4,4-Difluoro-2-methylpyrrolidine-1-carbonyl)-N-(2-hydroxy-2-methylpropyl)-5-(6-(tert-pentylamino)-4-(trifluoromethyl)pyridin-3-yl)thiazole-2-carboxamide]"
1.7 nM,–,–,103* %,26 nM,"C[C@H]1CCCN1C(=O)c1nc(C(=O)NCC(C)(C)O)sc1-c1cnc(NCC(C)(C)C(F)(F)F)cc1C(F)(F)F [Example 120, (S)—N-(2-Hydroxy-2-methylpropyl)-4-(2-methylpyrrolidine-1-carbonyl)-5-(6-((3,3,3-trifluoro-2,2-dimethylpropyl)amino)-4-(trifluoromethyl)pyridin-3-yl)thiazole-2-carboxamide]"
1.9 nM,–,–,105* %,13 nM,"C[C@H]1CCCN1C(=O)c1nc(C(=O)NCC(C)(C)O)sc1-c1cnc(NC2(C(F)(F)F)CCC2)cc1C(F)F [Example 123, (S)-5-(4-(Difluoromethyl)-6-((1-(trifluoromethyl)cyclobutyl)amino)pyridin-3-yl)-N-(2-hydroxy-2-methylpropyl)-4-(2-methylpyrrolidine-1-carbonyl)thiazole-2-carboxamide]"
